According to US12296048B2, “Polymer particles for neutrophil injury” (THE REGENTS OF THE UNIVERSITY OF MICHIGAN, priority 2019, dated 2025):

Test system: mice with LPS-induced ALI
Assay type: in vivo
Method: In a lipopolysaccharide (LPS) mouse model of ALI, LPS administered to the lungs of healthy mice induces rapid recruitment of neutrophils into the lungs.
Poly-A microspheres were injected into the tail vein of mice with LPS-induced ALI at 30 mg/kg.
Male BALB/c or C57BL/6J mice were anesthetized with inhaled isoflurane, and given 50 μL of 0.4 mg/mL LPS orotracheally to induce lung inflammation. Particles (2×10^8 in 100 μL PBS per mouse) were injected at either 2 hrs or 6 hrs post-instillation via tail vein catheter. Methods of euthanasia and sample processing are shared with the P. Aeruginosa model (below) except instead of cytospin BALF, cells were stained with CD45, CD11b, and Ly6G, and were fixed overnight before flow cytometry to determine the % of neutrophils and macrophages in each sample.

For `CC(=O)Oc1ccccc1C(=O)O` [aspirin], the “BALF concentration of KC” value (LPS-ALI mice) was “not”, the “BALF concentration of MIP2” value (LPS-ALI mice) was “not” and the “BALF neutrophil count compared to ALI mice with no particles” value (tail vein injection 1 hr after LPS, Poly-A 30 mg/kg, aspirin in DMSO) was “did not reduce”.
